Reference: US7648989B2, “Indolylmaleimide derivatives as PKC inhibitors” (Novartis AG, priority 2004, dated 2010)

Key:
Human recombinant PKCβ1 = target: T1, Human recombinant PKCβ1 (Homo sapiens, UniProt P05771); assay: Protein Kinase Cβ1 assay; format: biochemical; details: selectivity ratio relative to PKCα
T1 construct: purchased Oxford Biomedical Research
Description: (§1) The compounds of the invention are tested for their activity on different PKC isoforms according to the following method. Assay is performed in a white with clear bottom 384-well microtiterplate with non-binding surface. The reaction mixture (25 μl) contains 1.5 μM of a tridecapeptide acceptor substrate that mimics the pseudo substrate sequence of PKC α with the Ala→Ser replacement, 10 μM ^33P-ATP, 10 mM Mg(NO3)2, 0.2 mM CaCl2, PKC at a protein concentration varying from 25 to 400 ng/ml (depending on the isotype used), lipid vesicles (containing 30 mol % phosphatidylserine, 5 mol % DAG and 65 mol % phosphatidylcholine) at a final lipid concentration of 0.5 mM, in 20 mM Tris-HCl buffer pH 7.4+0.1% BSA. Incubation is performed for 60 min at room temperature.
Human recombinant PKCβ1 is obtained from Oxford Biomedical Research and is used under the assay conditions as described under Section A.1 above.

Human recombinant PKCδ = target: T2, Human recombinant PKCδ (Homo sapiens, UniProt Q05655); assay: Protein Kinase Cδ assay; format: biochemical; details: selectivity ratio relative to PKCα
T2 construct: purchased Oxford Biomedical Research
Description: as §1
Human recombinant PKCδ is obtained from Oxford Biomedical Research and is used under the assay conditions as described under Section A.1 above.

Human recombinant PKCε = target: T3, Human recombinant PKCε (Homo sapiens, UniProt Q02156); assay: Protein Kinase Cε assay; format: biochemical; details: selectivity ratio relative to PKCα
T3 construct: purchased Oxford Biomedical Research
T3 sequence (Q02156 1-737): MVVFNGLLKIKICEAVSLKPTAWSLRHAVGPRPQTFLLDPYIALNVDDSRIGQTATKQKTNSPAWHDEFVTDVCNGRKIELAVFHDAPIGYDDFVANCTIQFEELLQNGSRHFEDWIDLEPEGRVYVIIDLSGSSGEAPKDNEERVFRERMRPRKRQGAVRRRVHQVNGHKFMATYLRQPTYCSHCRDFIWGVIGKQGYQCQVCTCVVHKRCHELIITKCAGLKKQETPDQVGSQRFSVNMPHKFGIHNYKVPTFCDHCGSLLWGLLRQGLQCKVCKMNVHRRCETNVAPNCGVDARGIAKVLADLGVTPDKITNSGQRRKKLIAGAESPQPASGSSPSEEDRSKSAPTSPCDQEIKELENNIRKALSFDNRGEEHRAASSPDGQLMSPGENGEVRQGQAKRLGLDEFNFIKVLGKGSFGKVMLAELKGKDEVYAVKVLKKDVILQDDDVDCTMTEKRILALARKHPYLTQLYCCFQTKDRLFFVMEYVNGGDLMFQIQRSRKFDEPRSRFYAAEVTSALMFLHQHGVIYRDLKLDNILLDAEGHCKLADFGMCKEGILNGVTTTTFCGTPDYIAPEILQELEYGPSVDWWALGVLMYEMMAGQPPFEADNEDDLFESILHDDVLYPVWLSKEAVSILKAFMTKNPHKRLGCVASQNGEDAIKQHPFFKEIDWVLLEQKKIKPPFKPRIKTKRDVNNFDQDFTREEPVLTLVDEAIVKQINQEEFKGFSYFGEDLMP
Description: as §1
Human recombinant PKCε is obtained from Oxford Biomedical Research and is used under the assay conditions as described under Section A.1 above.

Human recombinant PKCη = target: T4, Human recombinant PKCη (Homo sapiens, UniProt P24723); assay: Protein Kinase Cη assay; format: biochemical; details: selectivity ratio relative to PKCα
T4 construct: purchased PanVera
Description: as §1
Human recombinant PKCη is obtained from PanVera and is used under the assay conditions as described under Section A.1 above.

Human recombinant PKCθ = Human recombinant PKCθ (Homo sapiens, UniProt Q04759); assay: Protein Kinase Cθ assay; format: biochemical; details: selectivity ratio relative to PKCα
Description: as §1
Human recombinant PKCθ is used under the assay conditions as described above.

[1] = test system: spleen cells from CBA and BALB/c mice (MLR); bone marrow cells from CBA mice (BM); assay: Allogeneic Mixed Lymphocyte Reaction (MLR) assay compared with Bone Marrow Proliferative (BM) assay; format: cell-based; details: mouse MLR and mouse bone marrow proliferation, 3H-thymidine incorporation
Description: Bone marrow cells from CBA mice (2.5×10^4 cells per well in flat bottom tissue culture microtiter plates) are incubated in 100 μl RPMI medium containing 10% FCS, 100 U/ml penicillin, 100 μg/ml streptomycin (Gibco BRL, Basel, Switzerland), 50 μM 2-mercaptoethanol (Fluka, Buchs, Switzerland), WEHI-3 conditioned medium (7.5% v/v) and L929 conditioned medium (3% v/v) as a source of growth factors and serially diluted compounds. Seven three-fold dilution steps in duplicates per test compound are performed. After four days of incubation 1 μCi ^3H-thymidine is added. Cells are harvested after an additional five-hour incubation period, and incorporated ^3H-thymidine is determined according to standard procedures. Conditioned media are prepared as follows. WEHI-3 cells (ATCC TIB68) and L929 cells (ATCC CCL 1) are grown in RPMI medium until confluence for 4 days and one week, respectively. […]
Briefly, spleen cells from CBA and BALB/c mice (1.6×10^5 cells from each strain per well in flat bottom tissue culture microtiter plates, 3.2×10^5 in total) are incubated in RPMI medium containing 10% FCS, 100 U/ml penicillin, 100 μg/ml streptomycin (Gibco BRL, Basel, Switzerland), 50 μM 2-mercaptoethanol (Fluka, Buchs, Switzerland) and serially diluted compounds. […] Cells are harvested after an additional five-hour incubation period, and incorporated ^3H-thymidine is determined according to standard procedures. […]

T4 sequence (P24723 whole entry): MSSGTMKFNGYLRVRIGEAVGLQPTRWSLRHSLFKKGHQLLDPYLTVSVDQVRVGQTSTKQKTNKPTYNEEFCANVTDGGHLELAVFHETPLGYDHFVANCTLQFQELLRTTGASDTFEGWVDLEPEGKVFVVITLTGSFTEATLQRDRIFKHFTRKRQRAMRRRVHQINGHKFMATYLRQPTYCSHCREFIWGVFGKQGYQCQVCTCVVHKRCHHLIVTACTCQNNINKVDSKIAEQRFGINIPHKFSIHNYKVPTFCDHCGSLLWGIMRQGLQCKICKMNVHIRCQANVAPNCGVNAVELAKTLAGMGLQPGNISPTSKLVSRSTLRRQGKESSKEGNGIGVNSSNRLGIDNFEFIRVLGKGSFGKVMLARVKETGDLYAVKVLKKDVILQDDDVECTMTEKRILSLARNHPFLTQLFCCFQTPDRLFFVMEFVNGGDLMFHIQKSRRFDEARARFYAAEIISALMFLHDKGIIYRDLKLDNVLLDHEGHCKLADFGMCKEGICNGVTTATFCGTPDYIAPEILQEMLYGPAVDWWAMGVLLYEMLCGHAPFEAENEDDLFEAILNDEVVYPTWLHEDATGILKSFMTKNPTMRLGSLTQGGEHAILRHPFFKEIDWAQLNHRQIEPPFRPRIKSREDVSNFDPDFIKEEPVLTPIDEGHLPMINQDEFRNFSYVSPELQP
T1 sequence (P05771 whole entry): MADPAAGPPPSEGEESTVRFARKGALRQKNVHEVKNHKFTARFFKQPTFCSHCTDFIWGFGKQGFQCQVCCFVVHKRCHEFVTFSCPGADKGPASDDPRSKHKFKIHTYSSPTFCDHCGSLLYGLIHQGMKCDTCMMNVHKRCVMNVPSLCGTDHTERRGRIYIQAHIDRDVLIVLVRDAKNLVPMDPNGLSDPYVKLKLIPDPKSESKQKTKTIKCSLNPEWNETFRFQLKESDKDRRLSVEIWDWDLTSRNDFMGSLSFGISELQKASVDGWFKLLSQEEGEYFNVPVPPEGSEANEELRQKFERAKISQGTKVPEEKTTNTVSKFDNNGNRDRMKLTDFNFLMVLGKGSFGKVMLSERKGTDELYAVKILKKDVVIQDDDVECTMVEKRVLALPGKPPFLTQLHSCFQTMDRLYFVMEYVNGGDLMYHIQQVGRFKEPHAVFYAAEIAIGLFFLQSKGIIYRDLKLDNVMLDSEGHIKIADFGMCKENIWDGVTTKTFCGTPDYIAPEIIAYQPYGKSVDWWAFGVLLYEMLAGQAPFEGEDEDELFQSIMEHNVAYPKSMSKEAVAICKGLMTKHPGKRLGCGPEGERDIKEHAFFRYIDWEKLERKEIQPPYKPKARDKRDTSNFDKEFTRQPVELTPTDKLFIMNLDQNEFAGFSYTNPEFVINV
T2 sequence (Q05655 whole entry): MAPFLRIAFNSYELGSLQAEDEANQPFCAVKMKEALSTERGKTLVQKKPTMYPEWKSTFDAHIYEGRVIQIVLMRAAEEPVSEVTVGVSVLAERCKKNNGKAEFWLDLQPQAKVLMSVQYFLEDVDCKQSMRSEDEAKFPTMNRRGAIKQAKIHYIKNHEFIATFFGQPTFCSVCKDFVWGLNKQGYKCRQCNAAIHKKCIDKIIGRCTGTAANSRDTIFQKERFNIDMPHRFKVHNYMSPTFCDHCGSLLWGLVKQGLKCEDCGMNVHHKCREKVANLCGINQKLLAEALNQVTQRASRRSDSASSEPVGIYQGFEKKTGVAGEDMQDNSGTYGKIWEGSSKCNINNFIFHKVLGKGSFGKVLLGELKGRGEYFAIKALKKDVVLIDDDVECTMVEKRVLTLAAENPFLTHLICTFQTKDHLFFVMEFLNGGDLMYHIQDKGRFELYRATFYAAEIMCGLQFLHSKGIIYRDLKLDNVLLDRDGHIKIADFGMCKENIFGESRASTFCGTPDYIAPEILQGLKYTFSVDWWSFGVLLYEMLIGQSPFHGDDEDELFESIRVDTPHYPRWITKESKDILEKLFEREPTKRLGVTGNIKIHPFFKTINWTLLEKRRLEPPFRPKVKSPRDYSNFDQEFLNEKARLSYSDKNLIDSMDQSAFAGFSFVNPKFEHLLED
Sequence of Human recombinant PKCθ (Q04759 whole entry): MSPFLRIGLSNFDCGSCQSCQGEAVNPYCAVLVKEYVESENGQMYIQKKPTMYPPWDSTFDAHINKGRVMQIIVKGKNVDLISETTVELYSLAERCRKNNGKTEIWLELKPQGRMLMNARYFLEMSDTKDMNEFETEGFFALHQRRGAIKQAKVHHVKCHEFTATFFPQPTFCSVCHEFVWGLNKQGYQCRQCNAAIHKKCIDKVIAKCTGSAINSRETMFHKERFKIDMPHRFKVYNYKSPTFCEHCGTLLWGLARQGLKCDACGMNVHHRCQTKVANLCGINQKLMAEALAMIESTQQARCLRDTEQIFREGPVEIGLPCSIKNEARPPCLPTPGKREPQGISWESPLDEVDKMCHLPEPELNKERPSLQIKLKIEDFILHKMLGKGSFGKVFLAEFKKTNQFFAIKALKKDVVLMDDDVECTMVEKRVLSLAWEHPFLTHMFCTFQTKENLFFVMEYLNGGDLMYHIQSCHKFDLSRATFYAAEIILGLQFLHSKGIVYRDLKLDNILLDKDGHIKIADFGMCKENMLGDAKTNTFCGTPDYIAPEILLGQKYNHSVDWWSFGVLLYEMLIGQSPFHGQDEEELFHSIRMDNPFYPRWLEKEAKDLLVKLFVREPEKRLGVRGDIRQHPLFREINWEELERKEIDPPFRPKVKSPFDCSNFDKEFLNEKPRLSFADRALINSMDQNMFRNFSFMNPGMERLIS

SMILES	β/α: ratio of the IC50 value for PKC β to the IC50 value for PKCα (Human recombinant PKCβ1)	δ/α: ratio of the IC50 value for PKC δ to the IC50 value for PKCα (Human recombinant PKCδ)	ε/α: ratio of the IC50 value for PKC ε to the IC50 value for PKCα (Human recombinant PKCε)	η/α: ratio of the IC50 value for PKC η to the IC50 value for PKCα (Human recombinant PKCη)	θ/α: ratio of the IC50 value for PKC θ to the IC50 value for PKCα (Human recombinant PKCθ)	MLR/BM: ratio of the IC50 value as determined by the MLR assay to the IC50 value as determined by the BM assay [1]
CN(C)Cc1ccc2ccc(Cl)c(C3=C(c4cn(C)c5ccccc45)C(=O)NC3=O)c2c1 [Example 1, 3-(2-Chloro-7-dimethylaminomethyl-naphthalen-1-yl)-4-(1-methyl-1H-indol-3-yl)-pyrrole-2,5-dione]	1.2	66.4	122.6	140.2	90.8	21.6
Cn1c2ccccc2c2c3c(c4c5ccccc5n(CCC#N)c4c21)CNC3=O [Example 47, Gö 6976]	5.3	120.5	45.8	118.7	222.3	2.1
